Measurements from patent US9365562B2, “1,3 substituted azetidine PDE10 inhibitors” (Merck Sharp & Dohme Corp., priority 2011, dated 2016).

Target: human PDE10A2 (Homo sapiens (Human), UniProt Q9Y233)
Assay: PDE10 fluorescence polarization (IMAP FP) inhibition assay
Format: biochemical
Details: apparent inhibition constant, FAM-labeled cAMP substrate 50 nM, room temperature
Protocol: The activity of the compounds in accordance with the present invention as PDE10 inhibitors may be readily determined without undue experimentation using a fluorescence polarization (FP) methodology that is well known in the art (Huang, W., et al., J. Biomol Screen, 2002, 7: 215).
In a typical experiment the PDE10 inhibitory activity of the compounds of the present invention was determined in accordance with the following experimental method. PDE10A2 was amplified from human fetal brain cDNA (Clontech, Mountain View, Calif.) using a forward primer corresponding to nucleotides 56-77 of human PDE10A2 (Accession No. AF127480, Genbank Identifier 4894716), containing a Kozak consensus sequence, and a reverse primer corresponding to nucleotides 2406-2413 of human PDE10A2 (Accession No. AF127480, Genbank Identifier 4894716). Amplification with Easy-A polymerase (Stratagene, La Jolla, Calif.) was 95° C. for 2 minutes followed by thirty three cycles of 95° C. for 40 seconds, 55° C. for 30 seconds, and 72° C. for 2 minutes 48 seconds. Final extension was 72° C. for 7 minutes. The PCR product was TA cloned into pcDNA3.2-TOPO (Invitrogen, Carlsbad, Calif.) according to standard protocol. AD293 cells with 70-80% confluency were transiently transfected with human PDE10A2/pcDNA3.2-TOPO using Lipofectamine 2000 according to manufacturer specifications (Invitrogen, Carlsbad, Calif.). Cells were harvested 48 hours post-transfection and lysed by sonication (setting 3, 10×5 sec pulses) in a buffer containing 20 mM HEPES, 1 mM EDTA and protease inhibitor cocktail (Roche). Lysate was collected by centrifugation at 75,000×g for 20 minutes. Supernatant containing the cytoplasmic fraction was used for evaluation of PDE10A2 activity. The fluorescence polarization assay for cyclic nucleotide phosphodiesterases was performed using an IMAP® FP kit supplied by Molecular Devices, Sunnyvale, Calif. (product # R8139). IMAP® technology has been applied previously to phosphodiesterase assays (Huang, W., et al., J. Biomol Screen, 2002, 7: 215). Assays were performed at room temperature in 384-well microtiter plates with an incubation volume of 20.2 μL. Solutions of test compounds were prepared in DMSO and serially diluted with DMSO to yield 8 μL of each of 10 solutions differing by 3-fold in concentration, at 32 serial dilutions per plate. 100% inhibition is determined using a known PDE10 inhibitor, which can be any compound that is present at 5,000 times its Ki value in the assay described as follows, such as papaverine (see Siuciak, et al. Neuropharmacology (2006) 51:386-396; Becker, et al. Behav Brain Res (2008) 186(2):155-60; Threlfell, et al., J Pharmacol Exp Ther (2009) 328(3):785-795), 2-{4-[pyridin-4-yl-1-(2,2,2-trifluoroethyl)-1H-pyrazol-3-yl]phenoxymethyl}quinoline succinic acid or 2-[4-(1-methyl-4-pyridin-4-yl-1H-pyrazol-3-yl)-phenoxymethyl]quinoline succinic acid (see Schmidt, et al. J Pharmacol Exp Ther (2008) 325:681-690; Threlfell, et al., J Pharmacol Exp Ther (2009) 328(3): 785-795). 0% of inhibition is determined by using DMSO (1% final concentrations). A Labcyte Echo 555 (Labcyte, Sunnyvale, Calif.) is used to dispense […] from each well of the titration plate to the 384 well assay plate. A solution of enzyme (1/7000 dilution from aliquots; sufficient to produce 20% substrate conversion) and a separate solution of FAM-labeled cAMP PDE from Molecular Devices (product # R7506), at a final concentration of 50 nM are made in the assay buffer (10 mM Tris HCl, pH 7.2, 10 mM MgCl2, 0.05% NaN3 0.01% Tween-20, and 1 mM DTT). The enzyme is added to the assay plates by the addition of 10 μL of enzyme solution to each well, shaken to mix and incubated at room temperature for 60 minutes. The substrate is then added to the assay plates by the addition of 10 μL of substrate solution to each well, shaken to mix, and incubated at room temperature for 60 minutes. […]

Chain of human PDE10A2 (Q9Y233 267-1055): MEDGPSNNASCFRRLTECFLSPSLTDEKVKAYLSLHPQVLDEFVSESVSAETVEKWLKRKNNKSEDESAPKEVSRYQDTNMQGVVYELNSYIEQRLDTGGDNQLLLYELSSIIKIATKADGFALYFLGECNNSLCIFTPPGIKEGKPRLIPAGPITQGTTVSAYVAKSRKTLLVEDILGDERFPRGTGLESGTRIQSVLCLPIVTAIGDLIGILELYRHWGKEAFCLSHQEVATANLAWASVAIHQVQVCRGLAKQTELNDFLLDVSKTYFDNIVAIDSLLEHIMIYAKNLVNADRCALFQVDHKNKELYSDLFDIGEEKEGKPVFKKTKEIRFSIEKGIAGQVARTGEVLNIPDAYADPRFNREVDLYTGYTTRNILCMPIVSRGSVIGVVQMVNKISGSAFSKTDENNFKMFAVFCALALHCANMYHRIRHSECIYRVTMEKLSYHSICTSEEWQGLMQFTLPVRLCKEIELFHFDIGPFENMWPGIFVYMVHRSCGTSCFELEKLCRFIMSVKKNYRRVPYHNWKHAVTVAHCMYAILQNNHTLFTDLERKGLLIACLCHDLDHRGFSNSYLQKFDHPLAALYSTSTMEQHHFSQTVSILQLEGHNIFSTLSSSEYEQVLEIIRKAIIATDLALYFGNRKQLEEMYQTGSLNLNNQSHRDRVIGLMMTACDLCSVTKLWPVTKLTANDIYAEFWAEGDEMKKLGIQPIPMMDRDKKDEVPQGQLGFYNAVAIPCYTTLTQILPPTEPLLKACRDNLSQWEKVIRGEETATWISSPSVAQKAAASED

Row | Molecule | Ki [nM]
1 | COc1cnn(-c2cc(N3CC(c4nc5ccccc5n4C)C3)nc(C)n2)c1 [Example 18, 2-(1-(6-(4-methoxy-1H-pyrazol-1-yl)-2-methylpyrimidin-4-yl)azetidin-3-yl)-1-methyl-1H-benzo[d]imidazole] | 3.2
2 | Cc1nc(N2CC(c3nc4ccccc4n3CCC#N)C2)cc(-n2nc(C)nc2C)n1 [Example 119, 3-(2-(1-(6-(3,5-dimethyl-1H-1,2,4-triazol-1-yl)-2-methylpyrimidin-4-yl)azetidin-3-yl)-1H-benzo[d]imidazol-1-yl)propanenitrile] | 5
3 | Cc1nc(N2CC(c3nc4ccccc4n3C)C2)cc(-n2nc(C)nc2-c2c(F)cccc2F)n1 [Example 56, 2-(1-(6-(5-(2,6-difluorophenyl)-3-methyl-1H-1,2,4-triazol-1-yl)-2-methylpyrimidin-4-yl)azetidin-3-yl)-1-methyl-1H-benzo[d]imidazole] | 0.24
4 | Cc1ccc(-c2cc(N3CC(c4nc5ccccc5n4C)C3)nc(C(F)(F)F)n2)nc1 [Example 97, 1-methyl-2-(1-(6-(5-methylpyridin-2-yl)-2-(trifluoromethyl)pyrimidin-4-yl)azetidin-3-yl)-1H-benzo[d]imidazole] | 0.9
5 | Cc1nc(-c2ccncc2)cc(N2CC(c3nc4ccccc4n3C)C2)n1 [Example 86, 1-methyl-2-(1-(2-methyl-6-(pyridin-4-yl)pyrimidin-4-yl)azetidin-3-yl)-1H-benzo[d]imidazole] | 46
6 | Cc1cc(C)n(-c2cc(N3CC(c4nc5ccccc5n4C)C3)nc(C)n2)n1 [Example 7, 2-(1-(6-(3,5-dimethyl-1H-pyrazol-1-yl)-2-methylpyrimidin-4-yl)azetidin-3-yl)-1-methyl-1H-benzo[d]imidazole] | 8.6
7 | Cc1nc(N2CC(c3nc4c(C(F)(F)F)cccc4n3C)C2)cc(-n2nc(C)nc2C)n1 [Example 125, 2-(1-(6-(3,5-dimethyl-1H-1,2,4-triazol-1-yl)-2-methylpyrimidin-4-yl)azetidin-3-yl)-1-methyl-4-(trifluoromethyl)-1H-benzo[d]imidazole] | 37
8 | Cc1nc(-c2cccnc2C)cc(N2CC(c3nc4ccccc4n3C)C2)n1 [Example 80, 1-Methyl-2-(1-(2-methyl-6-(2-methylpyridin-3-yl)pyrimidin-4-yl)azetidin-3-yl)-1H-benzo[d]imidazole] | > 100
9 | 1-(1-{2-methoxy-6-3-(1-methyl-1H-benzimidazol-2-yl)azetidin-1-yl]pyrimidin-4-yl}-1H-pyrazol-4-yl)ethanol [Example 20] | 37
10 | Cc1nc(N2CC(c3nc4ccccc4n3C)C2)cc(-n2cc(C#N)cn2)n1 [Example 17, 1-(2-methyl-6-(3-(1-methyl-1H-benzo[d]imidazol-2-yl)azetidin-1-yl)pyrimidin-4-yl)-1H-pyrazole-4-carbonitrile] | 4.2
11 | Cc1nc(N2CC(c3nc4ccccc4n3C)C2)cc(-n2nc(C)nc2C[C@@H](C)O)n1 [Example 41, (R)-1-(3-methyl-1-(2-methyl-6-(3-(1-methyl-1H-benzo[d]imidazol-2-yl)azetidin-1-yl)pyrimidin-4-yl)-1H-1,2,4-triazol-5-yl)propan-2-ol] | 1

Further molecules by falling Ki, results first:

Row | Ki [nM] | Molecule
12 | 27 | COc1ncccc1-c1cc(N2CC(c3nc4ccccc4n3C)C2)nc(C)n1 [Example 82, 2-(1-(6-(2-methoxypyridin-3-yl)-2-methylpyrimidin-4-yl)azetidin-3-yl)-1-methyl-1H-benzo[d]imidazole]
13 | 20 | Cc1nc(-c2ncco2)cc(N2CC(c3nc4ccccc4n3C)C2)n1 [Example 104, 2-(2-methyl-6-(3-(1-methyl-1H-benzo[d]imidazol-2-yl)azetidin-1-yl)pyrimidin-4-yl)oxazole]
14 | 19 | Cc1nc(-c2ccccc2C(=O)O)cc(N2CC(c3nc4ccccc4n3C)C2)n1 [Example 93, 2-(2-methyl-6-(3-(1-methyl-1H-benzo[d]imidazol-2-yl)azetidin-1-yl)pyrimidin-4-yl)benzoic acid]
15 | 19 | Cc1nc(N2CC(c3nc4cccc(F)c4[nH]3)C2)cc(-n2nc(C)nc2C)n1 [Example 108, 2-(1-(6-(3,5-dimethyl-1H-1,2,4-triazol-1-yl)-2-methylpyrimidin-4-yl)azetidin-3-yl)-7-fluoro-1H-benzo[d]imidazole]
16 | 8.5 | Cc1nc(N2CC(c3nc4ccccc4n3C)C2)cc(-n2nncc2C)n1 [Example 27, 1-methyl-2-(1-(2-methyl-6-(5-methyl-1H-1,2,3-triazol-1-yl)pyrimidin-4-yl)azetidin-3-yl)-1H-benzo[d]imidazole]
17 | 3.4 | CCc1cnn(-c2cc(N3CC(c4nc5ccccc5n4C)C3)nc(C)n2)c1 [Example 15, 2-(1-(6-(4-ethyl-1H-pyrazol-1-yl)-2-methylpyrimidin-4-yl)azetidin-3-yl)-1-methyl-1H-benzo[d]imidazole]
18 | 3.1 | CCOC(=O)Cc1nc(N2CC(c3nc4ccccc4n3C)C2)cc(-n2nc(C)nc2C)n1 [Example 26, ethyl 2-(4-(3,5-dimethyl-1H-1,2,4-triazol-1-yl)-6-(3-(1-methyl-1H-benzo[d]imidazol-2-yl)azetidin-1-yl)pyrimidin-2-yl)acetate]
19 | 1.4 | COc1nc(N2CC(c3nc4ccccc4n3C)C2)cc(-n2ncc(C)n2)n1 [Example 34, 2-{1-[2-methoxy-6-(4-methyl-2H-1,2,3-triazol-2-yl)pyrimidin-4-yl]azetidin-3-yl}-1-methyl-1H-benzimidazole]
20 | 1.2 | Cc1nc(N2CC(c3nc4ccccc4n3C)C2)cc(-n2nc(C)nc2-c2ccccc2F)n1 [Example 51, 2-(1-(6-(5-(2-fluorophenyl)-3-methyl-1H-1,2,4-triazol-1-yl)-2-methylpyrimidin-4-yl)azetidin-3-yl)-1-methyl-1H-benzo[d]imidazole]
21 | 1.2 | Cc1cnn(-c2cc(N3CC(c4nc5ccccc5n4C)C3)nc(C(F)(F)F)n2)n1 [Example 31, 1-methyl-2-(1-(6-(4-methyl-2H-1,2,3-triazol-2-yl)-2-(trifluoromethyl)pyrimidin-4-yl)azetidin-3-yl)-1H-benzo[d]imidazole]
22 | 1.1 | Cc1cn(-c2cc(N3CC(c4nc5ccccc5n4C)C3)nc(C3CC3)n2)nn1 [Example 32, 2-(1-(2-cyclopropyl-6-(4-methyl-1H-1,2,3-triazol-1-yl)pyrimidin-4-yl)azetidin-3-yl)-1-methyl-1H-benzo[d]imidazole]
23 | 0.4 | CCc1nc(C)nn1-c1cc(N2CC(c3nc4ccccc4n3C)C2)nc(OC)n1 [Example 64, 2-(1-(6-(5-ethyl-3-methyl-1H-1,2,4-triazol-1-yl)-2-methoxypyrimidin-4-yl)azetidin-3-yl)-1-methyl-1H-benzo[d]imidazole]
24 | 0.35 | Cc1nc(N2CC(c3nc4ccccc4n3C)C2)cc(-n2nc(C)nc2-c2ccccc2Cl)n1 [Example 50, 2-(1-(6-(5-(2-chlorophenyl)-3-methyl-1H-1,2,4-triazol-1-yl)-2-methylpyrimidin-4-yl)azetidin-3-yl)-1-methyl-1H-benzo[d]imidazole]
25 | 0.13 | Cc1nc(C)n(-c2cc(N3CC(c4nc5ccccc5n4C)C3)nc(OCc3ccnn3C)n2)n1 [Example 73, 2-(1-(6-(3,5-dimethyl-1H-1,2,4-triazol-1-yl)-2-((1-methyl-1H-pyrazol-5-yl)methoxy)pyrimidin-4-yl)azetidin-3-yl)-1-methyl-1H-benzo[d]imidazole]
